Key:
human hepatocytes = assay: In vitro metabolism of Compound 2 in human cryopreserved hepatocytes; assay type: in vitro ADME; design: key to Relative abundance of metabolite of Compound 2, Human: ND Not detected.; trace: Trace: observed by HPLC/MS measurements only.; + Minor as assessed by HPLC/UV measurements; ++ moderate as assessed by HPLC/UV measurements; +++ major as assessed by HPLC/UV measurements.; * m/z 593 and m/z 505 co-eluted in rabbit hepatocytes.; ** m/z 591 c and m/z 593 were merged in human hepatocytes and Hepatopack.; *** m/z 607 and m/z 751 b were merged in rabbit hepatocytes; details: for metabolite of Compound 2 observed in human hepatocyte incubations: 10 μM Compound 2, 7.5×10^5 cells/mL, 1 and 4 hrs composite
Description: (§1) Male CD-1 mouse hepatocytes (lot YHL), male Wistar-Han rat hepatocytes (Celsius; product number: M000065; lot: SLA), female New Zealand rabbit hepatocytes (lot 1510147), male cryopreserved cynomolgus monkey hepatocytes (Celsius; product number: M00305; lot: DNB) and mixed-gender cryopreserved human hepatocytes (Bioreclamation; product number: S01988; lot: DCM) were obtained for the hepatocyte in-vitro assessments.
(§2) At time 0 hrs 550 μL aliquots were removed from incubations and quenched with 5 volumes of ACN containing 0.1% formic acid. At 1 and 4 hrs, 275 μL aliquots were removed and quenched as above; these were combined in the same tube to prepare a composite sample. For all hepatocyte experiments, samples were processed by centrifugation at 1900×g for 5 minutes, and then the supernatant was transferred to clean glass tubes and evaporated to dryness under a stream of N2 using a Turbovap at 37° C. Sample residues were reconstituted in mobile phase prior to analysis by HPLC/UV/MS^n.
(§3) Samples were analyzed by HPLC/UV/MS^n using a Thermo Orbitrap Elite mass spectrometer in conjunction with a Thermo Open Accela UHPLC system. A 3.0×150 mm, 2.5 μm Acquity CSH C18 HPLC column (Waters) was heated to 45° C. for separation of analytes. The mobile phase was a gradient of A): water containing 0.1% formic acid, and B): acetonitrile. The flow rate was 450 μL/min, and the following gradient program was utilized: […]
(§4) UV absorbance was monitored with a photo-diode array detector from 220-450 nm. The mass spectrometer was operated in positive-ion mode with a HESI ion source at a potential of 3.0 kV, and capillary and source heater temperatures of 380 and 300° C., respectively. Sheath, auxiliary, and sweep gas flows were set to 45, 10, and 2 units, respectively. Full scan mass spectra were acquired over the range 120-1200 m/z at a resolving power of 30,000 (specified at m/z 400). Data-dependent MS^n spectra were acquired in an automated fashion at 15,000 resolving power using CID and HCD fragmentation with normalized collision energy settings of 28 and 65 V, respectively.
(§5) Metabolites were characterized by comparisons of mass spectral fragmentation patterns with that of a Compound 2 standard. All HPLC/UV/MS^n data were processed using Xcalibur v. 2.2, and integrated UV peak areas were subjected to weighted UV binning procedures utilizing an Excel template.

[1] = Metabolites of Compound 2 in rat bile following a 1.0 mg/kg IV bolus dose; assay type: in vivo; details: 1.0 mg/kg IV bolus dose of Compound 2, bile duct cannulated rats, pooled 0-24 hrs
Description: Plasma and bile samples were obtained from a bile duct cannulated rat experiment (Study PK-0111) in which a 1.0 mg/kg IV bolus dose was administered to fed male rats (N=3). No control plasma was available from this experiment.
Bile samples (0-3, 3-7, and 7-24 hrs) from individual animals were pooled in proportion to the amount collect in each interval. Then 0.5 mL of each individual pool was combined to prepare a composite sample for analysis.
Pooled plasma and bile samples were extracted with ACN containing 0.1% formic acid, and after centrifugation at 1900×g, the supernatant was transferred to clean tubes and evaporated under N2 in a Turbovap set at 37° C. Residues were reconstituted in mobile phase (5:95 v:v ACN:0.1% aqueous formic acid) prior to analysis by HPLC/UV/MS^n.
as §3, §4, §5

rabbit hepatocytes = assay: In vitro metabolism of Compound 2 in rabbit cryopreserved hepatocytes; assay type: in vitro ADME; design: key to Relative abundance of metabolite of Compound 2, Rabbit: ND Not detected.; trace: Trace: observed by HPLC/MS measurements only.; + Minor as assessed by HPLC/UV measurements; ++ moderate as assessed by HPLC/UV measurements; +++ major as assessed by HPLC/UV measurements.; * m/z 593 and m/z 505 co-eluted in rabbit hepatocytes.; ** m/z 591 c and m/z 593 were merged in human hepatocytes and Hepatopack.; *** m/z 607 and m/z 751 b were merged in rabbit hepatocytes; details: for metabolite of Compound 2 observed in rabbit hepatocyte incubations: 10 μM Compound 2, 7.5×10^5 cells/mL, 1 and 4 hrs composite
Description: as §1, §2, §3, §4, §5

monkey hepatocytes = assay: In vitro metabolism of Compound 2 in monkey cryopreserved hepatocytes; assay type: in vitro ADME, cynomolgus monkey; design: key to Relative abundance of metabolite of Compound 2, Monkey: ND Not detected.; trace: Trace: observed by HPLC/MS measurements only.; + Minor as assessed by HPLC/UV measurements; ++ moderate as assessed by HPLC/UV measurements; +++ major as assessed by HPLC/UV measurements.; * m/z 593 and m/z 505 co-eluted in rabbit hepatocytes.; ** m/z 591 c and m/z 593 were merged in human hepatocytes and Hepatopack.; *** m/z 607 and m/z 751 b were merged in rabbit hepatocytes; details: for metabolite of Compound 2 observed in monkey hepatocyte incubations: 10 μM Compound 2, 7.5×10^5 cells/mL, 1 and 4 hrs composite
Description: as §1, §2, §3, §4, §5

human GLP-1R = target: T1, human GLP-1R (Homo sapiens, UniProt P43220, L260F); assay: CHO GLP-1R Clone C6 - Assay 2 (HTRF cAMP agonist assay, low receptor density); assay type: cell-based; details: CHO GLP-1R Clone C6 (low receptor density), arithmetic mean, relative to 1 μM GLP-1
T1 construct: expressed in transfected cells
T1 sequence (P43220 24-463 L260F): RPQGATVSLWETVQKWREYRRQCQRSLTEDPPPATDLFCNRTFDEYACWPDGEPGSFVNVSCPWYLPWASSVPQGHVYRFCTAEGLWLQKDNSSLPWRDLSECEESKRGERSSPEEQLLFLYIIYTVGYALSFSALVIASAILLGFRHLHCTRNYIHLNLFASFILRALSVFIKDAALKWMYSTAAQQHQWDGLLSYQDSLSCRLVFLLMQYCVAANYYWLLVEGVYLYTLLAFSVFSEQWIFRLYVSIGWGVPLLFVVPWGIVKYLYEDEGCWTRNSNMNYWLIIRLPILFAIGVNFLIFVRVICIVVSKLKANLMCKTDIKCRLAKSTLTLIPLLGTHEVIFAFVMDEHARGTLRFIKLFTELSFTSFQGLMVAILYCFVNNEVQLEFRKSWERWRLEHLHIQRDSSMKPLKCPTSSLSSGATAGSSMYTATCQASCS
Description: GLP-1R-mediated agonist activity was determined with a cell-based functional assay utilizing an HTRF (Homogeneous Time-Resolved Fluorescence) cAMP detection kit (cAMP HI Range Assay Kit; Cis Bio cat #62AM6PEJ) that measures cAMP levels in the cell. The method is a competitive immunoassay between native cAMP produced by the cells and exogenous cAMP labeled with the dye d2. The tracer binding is visualized by a mAb anti-cAMP labeled with Cryptate. The specific signal (i.e. energy transfer) is inversely proportional to the concentration of cAMP in either a standard or an experimental sample.
The human GLP-1R coding sequence (NCBI Reference Sequence NP_002053.3, including naturally-occurring variant Leu260Phe) was subcloned into pcDNA5-FRT-TO and a clonal CHO cell line stably expressing a low receptor density was isolated using the Flp-In™ T-Rex™ System, as described by the manufacturer (ThermoFisher).
Cells were removed from cryopreservation, re-suspended in 40 mL of Dulbecco's Phosphate Buffered Saline (DPBS—Lonza Cat #17-512Q) and centrifuged at 800×g for 5 minutes at 22° C. The DPBS was aspirated, and the cell pellet was re-suspended in 10 mL of complete growth medium (DMEM:F12 1:1 Mixture with HEPES, L-Gln, 500 mL (DMEM/F12 Lonza Cat #12-719F), 10% heat inactivated fetal bovine serum (Gibco Cat #16140-071), 5 mL of 100× Pen-Strep (Gibco Cat #15140-122), 5 mL of 100× L-Glutamine (Gibco Cat #25030-081), 700 μg/mL Hygromycin (Invitrogen Cat #10687010) and 15 μg/mL Blasticidin (Gibco Cat #R21001). A 1 mL sample of the cell suspension in growth media was counted on a Becton Dickinson ViCell to determine cell viability and cell count per mL. The remaining cell suspension was then adjusted with growth media to deliver 1600 viable cells per well using a Matrix Combi Multidrop reagent dispenser, and the cells were dispensed into a white 384 well tissue culture treated assay plate (Corning 3570). The assay plate was then incubated for 48 hours at 37° C. in a humidified environment (95% O2, 5% CO2)
Varying concentrations of each compound to be tested (in DMSO) were diluted in assay buffer [HBSS with Calcium/Magnesium (Lonza/BioWhittaker cat #10-527F)/0.1% BSA (Sigma Aldrich cat #A7409-1L)/20 mM HEPES (Lonza/BioWhittaker cat #17-737E)] containing 100 μM 3-isobutyl-1-methylxanthin (IBMX; Sigma cat #15879). The final DMSO concentration in the compound/assay buffer mixture is 1%.
After 48 hours, the growth media was removed from the assay plate wells, and the cells were treated with 20 μL of the serially diluted compound in assay buffer for 30 minutes at 37° C. in a humidified environment (95% O2, 5% CO2). Following the 30 minute incubation, 10 μL of labeled d2 cAMP and 10 μL of anti-cAMP antibody (both diluted 1:20 in cell lysis buffer; as described in the manufacturer's assay protocol) were added to each well of the assay plate. The plates were then incubated at room temperature and after 60 minutes, changes in the HTRF signal were read with an Envision 2104 multi-label plate reader using excitation of 330 nm and emissions of 615 and 665 nm. Raw data were converted to nM cAMP by interpolation from a cAMP standard curve (as described in the manufacturer's assay protocol) and the percent effect was determined relative to a saturating concentration of the full agonist GLP-1 (1 μM) included on each plate. EC50 determinations were made from agonist dose response curves analyzed with a curve fitting program using a 4-parameter logistic dose response equation.

SMILES	metabolite of Compound 2 observed in human hepatocyte incubations (human hepatocytes)	metabolite of Compound 2 observed in human hepatocyte incubations (human hepatocytes; listed as m/z 751b)	detected in rat bile [1]	detected in rat bile ([1]; listed as m/z 751b)	metabolite of Compound 2 observed in rabbit hepatocyte incubations (rabbit hepatocytes)	metabolite of Compound 2 observed in monkey hepatocyte incubations (monkey hepatocytes)	Emax (human GLP-1R)	Relative abundance of metabolite of Compound 2, Human (human hepatocytes; human cryopreserved hepatocytes, HPLC/UV/MS)	detected in rat bile ([1]; listed as m/z 331)	Relative abundance of metabolite of Compound 2, Rabbit (rabbit hepatocytes; rabbit cryopreserved hepatocytes, HPLC/UV/MS)	Relative abundance of metabolite of Compound 2, Monkey (monkey hepatocytes; monkey cryopreserved hepatocytes, HPLC/UV/MS)
C[C@]1(c2ccc(Cl)cn2)Oc2cccc(C3CCN(Cc4nc5ccc(C(=O)O[C@@H]6O[C@H](C(=O)O)[C@@H](O)[C@H](O)[C@H]6O)cc5n4C[C@@H]4CCO4)CC3)c2O1 [Metabolite 751b]	observed in all hepatocyte incubations	most abundant metabolites	observed	detected	observed in all hepatocyte incubations	observed in all hepatocyte incubations	68%	–	–	–	–
C[C@]1(c2ccc(Cl)cn2)Oc2cccc(C3CCNCC3)c2O1 [Metabolite 331]	observed in all hepatocyte incubations	–	observed	–	observed in all hepatocyte incubations	observed in all hepatocyte incubations	–	+	detected	trace	+
